# Target: T1, LOXL2 (Homo sapiens, UniProt Q9Y4K0)
# T1 sequence (Q9Y4K0 26-774): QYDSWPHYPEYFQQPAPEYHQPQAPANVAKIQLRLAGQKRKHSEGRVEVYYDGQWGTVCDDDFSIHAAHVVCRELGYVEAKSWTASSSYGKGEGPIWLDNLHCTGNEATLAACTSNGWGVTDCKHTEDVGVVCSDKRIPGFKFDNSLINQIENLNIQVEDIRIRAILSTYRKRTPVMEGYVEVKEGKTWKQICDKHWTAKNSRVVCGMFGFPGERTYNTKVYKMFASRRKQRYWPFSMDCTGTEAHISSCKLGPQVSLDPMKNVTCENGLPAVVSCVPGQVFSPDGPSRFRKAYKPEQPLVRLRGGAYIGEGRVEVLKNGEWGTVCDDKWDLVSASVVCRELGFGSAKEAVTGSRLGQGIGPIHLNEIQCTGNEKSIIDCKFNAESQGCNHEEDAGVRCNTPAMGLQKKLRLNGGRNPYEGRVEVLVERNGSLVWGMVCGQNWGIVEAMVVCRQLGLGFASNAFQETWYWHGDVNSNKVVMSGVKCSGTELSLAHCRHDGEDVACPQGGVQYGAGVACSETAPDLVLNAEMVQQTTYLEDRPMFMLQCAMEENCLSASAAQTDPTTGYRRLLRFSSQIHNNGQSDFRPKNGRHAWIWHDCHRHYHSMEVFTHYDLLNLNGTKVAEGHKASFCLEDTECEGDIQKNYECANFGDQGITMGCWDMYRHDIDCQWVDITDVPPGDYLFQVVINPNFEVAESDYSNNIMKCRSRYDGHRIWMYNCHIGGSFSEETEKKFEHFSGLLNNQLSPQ
# Assay: Phase 1 study, LOXL2 activity in plasma after single oral dose (PXS-5878/Simoa)
# Assay type: in vivo
# Design: from tissue; host or cells: human plasma (activity) and human serum (protein concentration) from clinical trial subjects
# Conditions: for Inhibition of LOXL2 activity: healthy humans
# Experimental: To confirm the therapeutic potential of the anti‐fibrotic PXS‐5338 (Figure S5) in humans, LOXL2 inhibition after oral administration was examined in a phase 1 study. […] This underscored the fast resynthesis of LOXL2 in humans, similar to that seen in rodents, with ca. 80% of enzyme activity returning within 24 h.
# FIGURE 3 Inhibition of human lysyl oxidase‐like 2 (LOXL2) enzymatic activity by PXS‐5338 in clinical trials. (A) LOXL2 protein concentration in human serum is fairly constant over 24 h. Protein concentrations normalised to pre‐dose levels are plotted over time in healthy subjects treated with different doses (placebo, 100, 200 and 400 mg) of PXS‐5338. Mean ± SD with n = 6/time point. Phase 1 study with healthy male volunteers, ANZCTR ACTRN12617001444370. Legend of (A) also applies to (B) and (C). (B) Dose‐dependent inhibition of LOXL2 in plasma following a single oral dose of 100, 200 mg or 400 mg PXS‐5338. PXS‐5878/Simoa® platform used to measure the residual activity. Mean ± SD with n = 6/time point. (C) Pharmacokinetic (PK) profile of PXS‐5338 in healthy human males. […] (D) Correlation between LOXL2 protein concentration versus % inhibition. Activity data normalised to pre‐dose value.
# The platform consists of an activity-based probe (ABP) for the detection of enzyme activity in conjunction with the Simoa^TM (single molecule array) bead technology to isolate the protein. This platform has enabled accurate measurement of total protein and enzymatic activity of LOXL2 from small volumes of serum, plasma and tissue.
# In the immunoassay, paramagnetic capture beads are coated with a LOXL2 capture antibody (AF2639). 100 µL of pre-diluted (4-fold) sample in buffer (0.5% Casein, 0.25% Tween-20 in PBS) is combined in a cuvette with the capture beads (25 µL for protein content at 1.6 x 10^7 beads/mL; 100 µL for enzyme activity at 4 x 10^6 beads/mL). The biotinylated detector agent [either a second anti-LOXL2 antibody (AB213598) for protein content or the ABP (PXS-5878) for enzyme activity) is then added during the same incubation with intermittent shaking at room temperature (35 minutes for protein content or 54 minutes for enzyme activity).
# Target molecules present in the sample are captured by the antibody coated beads and bound with the detector agent simultaneously. After incubation, beads are pelleted by magnetic separation, excess sample/buffer and reagents aspirated off and beads resuspended in wash buffer to remove unbound proteins and excess reagents.
# Following protein capture and incubation with the detector, a conjugate of streptavidin-β-galactosidase (SβG; 100 µL at 300 - 350 pM) is mixed with the beads and incubated (5 minutes with intermittent shaking at room temperature). SβG binds to the biotinylated detector agent, resulting in enzyme-labelling of captured LOXL2. Following a final wash, the beads are resuspended in a resorufin-β-D-galactopyranoside (RGP) substrate solution and transferred to a Simoa^TM Disc (containing a microarray to separate beads into individual microwells). After settling into the microarray via gravity, beads are then sealed in microwells with oil. If LOXL2 is captured and labelled on the bead, β-galactosidase hydrolyses the RGP substrate in the microwell into a fluorescent product that provides the signal for measurement. A single-labelled target molecule results in sufficient fluorescent signal that can be detected and counted by the Simoa^TM optical system. The percentage of bead-containing wells in the array that have a positive signal is proportional to the amount of target or activity present in the sample.
# To determine protein concentration, data can be interpolated from a calibration curve using rh LOXL2. For enzyme activity, samples are incubated for at least 30 minutes at room temperature with or without the pan-LOX inhibitor (100 μM BAPN). […]
structure (smiles),measurement,setting,value
CC(C)c1c(Cc2ccc(S(C)(=O)=O)nc2)c2ncccc2n1C/C(F)=C/CN [PXS‐5338],Inhibition of LOXL2 activity,"single oral dose 100 mg, 4 h",80%
same,Inhibition of LOXL2 activity,"single oral dose 100 mg, 24 h",approximately 20%
same,Inhibition of LOXL2 activity,"single oral dose 200 mg, 4 h",complete inhibition
same,Inhibition of LOXL2 activity,"single oral dose 200 mg, 24 h",50%
same,Inhibition of LOXL2 activity,"single oral dose 400 mg, 4 h",complete inhibition
same,Inhibition of LOXL2 activity,"single oral dose 400 mg, 24 h",70%
same,IC50,"phase 1 samples, n = 210, read-out: Calculated IC50 from correlation of concentration versus % inhibition",24 nM

# — PMC8571951, “An activity‐based bioprobe differentiates a novel small molecule inhibitor from a LOXL2 antibody and provides renewed promise for anti‐fibrotic therapeutic strategies” (Clinical and Translational Medicine, 2021)
